Assay results from US8093286B2, “Methods for treatment with bucindolol based on genetic targeting” (The Regents of the University of Colorado, a body corporate, priority 2004, dated 2012).
Values joined by “and” are separate entries in the source; they are usually repeats but may differ in a detail not shown here. Identical values can stand only once. Counter-ions that a name gives are not always drawn. Marks after values point to notes of the source that are not given here.

Test system: patients with Class III/IV heart failure
Assay: BEST trial, bucindolol vs placebo, clinical outcomes incl. DNA substudy and norepinephrine-change analyses
Assay type: in vivo
Details: for hazard ratio for hospitalizations, bucindolol vs placebo: adjusted for position 49; for Crude mortality: bucindolol group; for Mortality (M) hazard ratio, NE change quartile 2nd/1st / Mortality (M) hazard ratio, NE change quartile 3rd/1st / Mortality (M) hazard ratio, NE change quartile 4th/1st / Mortality + CHF hospitalization (M + H) hazard ratio, NE change quartile 2nd/1st / Mortality + CHF hospitalization (M + H) hazard ratio, NE change quartile 3rd/1st / Mortality + CHF hospitalization (M + H) hazard ratio, NE change quartile 4th/1st: within bucindolol group; for hazard ratio for survival, bucindolol vs placebo: adjusted for position 49 variants, age, sex, race
Text: Patients who participated in the Beta Blocker Evaluation of Survival Trial (BEST), (Lowes et al., 2002) and who consented for DNA substudies, were genotyped at the coding β1AR polymorphic sites. Enrollment in BEST was from May 31, 1995 to Dec. 31, 1998; the study design has been described in detail elsewhere (BEST Trial Investigators, 2001; and Lowes et al., 2002). Briefly, the study was a randomized, multicenter, placebo-controlled trial of the 3rd generation, nonselective β-blocker-vasodilator bucindolol (Bristow, 2000) in 2708 patients with Class III/IV heart failure (BEST Trial Investigators, 2001). Those receiving the active drug were administered 3 mg bucindolol twice daily for the first week, and up-titrated as tolerated on a weekly basis to 50 mg twice daily (or 100 mg twice daily for patients weighing >75 kg). Of the 2708 patients, 1040 consented for the substudy and had adequate DNA prepared from a blood sample. The study was approved by the BEST DNA Oversight Committee and the University of Cincinnati Institutional Review Board.
DNA was extracted from whole blood using standard techniques (Jones, 1963). Genotyping was performed using methods exactly as previously described in detail (Small et al., 2002). For the β1AR, variations at coding nucleotides 145 and 1165 were delineated, which correspond to amino acids 49 and 389. These alleles are designated as β1-Ser49, β1-Gly49 and β1-Arg389, β1-Gly389. All the DNA samples were successfully genotyped at the β1AR-389 locus and 1030 were successfully genotyped at β1AR-49.
The primary endpoints were all-cause mortality, hospitalizations adjudicated by an endpoints committee (BEST Trial Investigators, 2001) to be due to heart failure, and the combined endpoint of death or heart failure hospitalization. The variants at amino acid position 389 of the β1AR (Arg and Gly) were considered the primary genotypes hypothesized to influence […] efficacy. Continuous clinical variables are reported as mean ±SD, and comparisons were by t-test or Wilcoxon rank-sum tests. Categorical variables are reported as proportions and comparisons were by chi-square or Fisher's exact tests. Cumulative survival curves were constructed by Kaplan-Meier methods (Kaplan et al., 1958); and SAS (r) proprietary software, release 6.12. Cary, N.C.: SAS Institute, 1996). The Cox proportional-hazards regression model was used to examine the effects of treatment stratified by the indicated genotype. Results were adjusted for age, sex, race, and, as indicated, the β1-Gly49 polymorphism. Because of the limited number of comparisons, and an a priori hypothesis that was based on cell, transgenic, and other human studies […] Perez et al., 2003); and Wagoner et al., 2002), the P values <0.05 were considered to as significant, without adjustments for multiple comparisons.
Norepinephrine levels at baseline, or the change at 3 months were used to predict survival and the combined endpoint of mortality+CHF hospitalization. Absolute and log transformed data were initially analyzed. Because of skewness in norepinephrine levels natural log (Ln) transformed data were used in multivariate Cox proportional hazards regression models.
A Maximum Likelihood based method (Kalbfleisch et al., 1980) was used to categorize changes in norepinephrine into 3 groups for prediction of mortality or mortality+CHF hospitalization. This partitioning method finds the optimal split of norepinephrine values that maximize the likelihood of the resulting Cox proportional hazards model. In addition, a flexible cubic spline analysis (Green et al., 1994) was used to determine the shape and significance level of the relationship of norepinephrine changes at 3 months to survival.

[1] = 1st quartile of absolute NE change
[2] = 2nd quartile of absolute NE change
[3] = 3rd quartile of absolute NE change
[4] = 4th quartile of absolute NE change
[5] = BEST α2c DEL carrier (n = 207/1036)
[6] = BEST β1 389Arg/Arg + α2c DEL carriers (n = 73/1036)
[7] = BEST β1 389Arg/Arg + α2c WT/WT (n = 418/1036)
[8] = BEST β1 389 Gly carriers + DEL carriers (n = 134/1036)
[9] = BEST β1 389 Gly carriers + α2c WT/WT (n = 411/1036)
[10] = absolute NE change at 3 months, pg/ml
[11] = β1 389Arg/Arg and α2c WT/WT patients

## CC(C)(Cc1c[nH]c2ccccc12)NCC(O)COc1ccccc1C#N (stereo not drawn) [bucindolol, (2-{2-hydroxy-3{{2-(3-indolyl)-1,1-dimethylethyl}amino}propoxy}-benzonitrile hydrochloride)]
1st quartile of % NE change
  bucindolol/placebo hazard ratio, mortality (M): 1.03
  bucindolol/placebo hazard ratio, mortality + CHF hospitalization (M + H): 1.14
[1]
  bucindolol/placebo hazard ratio, mortality (M): 0.96
  bucindolol/placebo hazard ratio, mortality + CHF hospitalization (M + H): 1.19
2nd quartile of % NE change
  bucindolol/placebo hazard ratio, mortality (M): 0.98
  bucindolol/placebo hazard ratio, mortality + CHF hospitalization (M + H): 1.39
[2]
  bucindolol/placebo hazard ratio, mortality (M): 0.98
  bucindolol/placebo hazard ratio, mortality + CHF hospitalization (M + H): 1.30
3rd quartile of % NE change
  bucindolol/placebo hazard ratio, mortality (M): 0.56
  bucindolol/placebo hazard ratio, mortality + CHF hospitalization (M + H): 0.65
[3]
  bucindolol/placebo hazard ratio, mortality (M): 0.63
  bucindolol/placebo hazard ratio, mortality + CHF hospitalization (M + H): 0.58
4th quartile of % NE change
  bucindolol/placebo hazard ratio, mortality (M): 0.90
  bucindolol/placebo hazard ratio, mortality + CHF hospitalization (M + H): 0.66
[4]
  bucindolol/placebo hazard ratio, mortality (M): 0.80
  bucindolol/placebo hazard ratio, mortality + CHF hospitalization (M + H): 0.74
153 bucindolol subjects, NE reduction ≧244.5 pg/ml
  hazard ratio of subsequent mortality with norepinephrine reduction at 3 months (likelihood analysis): 1.69
Arg389 homozygotes
  hazard ratio for hospitalizations, bucindolol vs placebo: 0.63
[5]
  HF Hospitalization hazard ratio, bucindolol vs placebo: 0.76; 67 Ev
  Mortality + HF Hospitalization hazard ratio, bucindolol vs placebo: 0.89; 84 Ev
BEST α2c WT/WT (n = 829/1036)
  HF Hospitalization hazard ratio, bucindolol vs placebo: 0.74; 267 Ev
  Mortality + HF Hospitalization hazard ratio, bucindolol vs placebo: 0.72; 341 Ev
  Mortality hazard ratio, bucindolol vs placebo: 0.70; 155 Ev
BEST β1 389Arg/Arg (n = 493/1040), hydrochloride
  HF Hospitalization hazard ratio, bucindolol vs placebo: 0.64 and 0.64; 154
[6]
  HF Hospitalization hazard ratio, bucindolol vs placebo: 0.81; 73 Ev
  Mortality + HF Hospitalization hazard ratio, bucindolol vs placebo: 0.85; 34 Ev
  Mortality hazard ratio, bucindolol vs placebo: 0.71; 13 Ev
[7]
  HF Hospitalization hazard ratio, bucindolol vs placebo: 0.59; 126 Ev
  Mortality + HF Hospitalization hazard ratio, bucindolol vs placebo: 0.61; 156 Ev
  Mortality hazard ratio, bucindolol vs placebo: 0.60; 69 Ev
[8]
  HF Hospitalization hazard ratio, bucindolol vs placebo: 0.62; 134 Ev
  Mortality + HF Hospitalization hazard ratio, bucindolol vs placebo: 0.81; 50 Ev
  Mortality hazard ratio, bucindolol vs placebo: 1.35; 24 Ev
[9]
  HF Hospitalization hazard ratio, bucindolol vs placebo: 0.93; 411 Ev
  Mortality + HF Hospitalization hazard ratio, bucindolol vs placebo: 0.86; 185 Ev
  Mortality hazard ratio, bucindolol vs placebo: 0.82; 86 Ev
Bucindolol Incr subgroup, n = 137
  Number of deaths (%): 43 (31%)*
Bucindolol Inter subgroup, n = 551
  Number of deaths (%): 114 (21%)
Bucindolol Redxn subgroup, n = 153
  Number of deaths (%): 52 (34%)*
Gly389 carriers
  hazard ratio for hospitalizations, bucindolol vs placebo: 0.85
1st quartile of % NE change (< −30.2)
  Crude mortality: 25.2%
1st quartile of absolute NE change (< −144 pg/ml)
  Crude mortality: 26.1%
2nd quartile of % NE change (−30.2 to < −2.5)
  Crude mortality: 26.0%
2nd quartile of absolute NE change (−144 to < −9 pg/ml)
  Crude mortality: 25.7%
3rd quartile of % NE change (−2.5 to 31.1)
  Crude mortality: 18.8%
3rd quartile of absolute NE change (−9 to 111 pg/ml)
  Crude mortality: 17.7* %
4th quartile of % NE change (> 31.1)
  Crude mortality: 29.1%
4th quartile of absolute NE change (> 111 pg/ml)
  Crude mortality: 28.6%
Bucindolol subgroup with NE reduction ≧244.5 pg/ml (Group 1) vs intermediate change group, hydrochloride
  increased risk of subsequent mortality with marked norepinephrine reduction at 3 months: 1.7 fold and 1.65 fold
bucindolol-treated, BSL NE 64-356 pg/ml (146)
  Mortality hazard ratio, Arg/Arg:Gly carrier: 0.90
bucindolol-treated, BSL NE 358-545 pg/ml (144)
  Mortality hazard ratio, Arg/Arg:Gly carrier: 0.74
bucindolol-treated, BSL NE 546-2571 pg/ml (149)
  Mortality hazard ratio, Arg/Arg:Gly carrier: 0.68
bucindolol-treated, Group 1, change in NE @ 3 mos <−244 (70)
  Mortality hazard ratio, Arg/Arg:Gly carrier: 1.07
bucindolol-treated, Group 2, change in NE @ 3 mos −244 to 145 (248)
  Mortality hazard ratio, Arg/Arg:Gly carrier: 0.82
bucindolol-treated, Group 3, change in NE @ 3 mos >145 (54)
  Mortality hazard ratio, Arg/Arg:Gly carrier: 0.36
bucindolol-treated, increasing norepinephrine group (>145 pg/ml)
  relatively better mortality reduction of Arg homozygotes vs Gly carriers: 64%
% NE change at 3 months
  Mortality (M) hazard ratio, NE change quartile 2nd/1st: 1.14
  Mortality (M) hazard ratio, NE change quartile 3rd/1st: 0.77
  Mortality (M) hazard ratio, NE change quartile 4th/1st: 1.19
  Mortality + CHF hospitalization (M + H) hazard ratio, NE change quartile 2nd/1st: 1.18
  Mortality + CHF hospitalization (M + H) hazard ratio, NE change quartile 3rd/1st: 0.91
  Mortality + CHF hospitalization (M + H) hazard ratio, NE change quartile 4th/1st: 1.18
[10]
  Mortality (M) hazard ratio, NE change quartile 2nd/1st: 0.99
  Mortality (M) hazard ratio, NE change quartile 3rd/1st: 0.66
  Mortality (M) hazard ratio, NE change quartile 4th/1st: 1.15
  Mortality + CHF hospitalization (M + H) hazard ratio, NE change quartile 2nd/1st: 1.00
  Mortality + CHF hospitalization (M + H) hazard ratio, NE change quartile 3rd/1st: 0.83
  Mortality + CHF hospitalization (M + H) hazard ratio, NE change quartile 4th/1st: 1.10
α2c DEL 322-325 and β1 389Gly carriers
  increase in CV mortality: 36%
α2c DEL 322-325 carriers
  increase in cardiovascular mortality: 3%
α2c DEL 322-325 carriers who are β1 389Gly carriers, hydrochloride
  increase in all-cause mortality: 36% and 35%
α2c WT/WT patients
  reduction in cardiovascular mortality: 41%
α2c wild type patients
  reduction in mortality plus HF hospitalization: 28%
α2cAR wild type (WT/WT) patients, hydrochloride
  reduction in all-cause mortality: 29% and 30%
α2cAR wild type patients who are β1 389Gly carriers (nonsignificant)
  reduction in mortality: 22%
α2cAR-Del322-325 carriers with β1AR-389Arg/Arg
  mortality reduction: 18%
α2cAR-Del322-325 carriers, hydrochloride
  increase in all-cause mortality: 10% and 9%
[11]
  reduction in all-cause mortality: 40%
  reduction in cardiovascular mortality: 47%
  reduction in mortality + heart failure hospitalization: 39%
β1 389Arg/Arg patients
  reduction in cardiovascular mortality: 46%
β1 389Gly carriers (nonsignificant)
  reduction in all-cause mortality: 10%
β1 389Gly carriers (p=NS)
  reduction in cardiovascular mortality: 22%
β1-389 Arg/Arg + α2c wild type patients
  reduction in HF hospitalization: 41%
β1-Arg389 homozygotes
  hazard ratio for survival, bucindolol vs placebo: 0.62
β1-Gly389 carriers
  hazard ratio for survival, bucindolol vs placebo: 0.89
β1AR-389Arg/Arg patients
  reduction in all-cause mortality (improvement in survival): 38%
